Where a name gives a salt, the structure may show the parent alone.
These compounds were tested against T1, DPP-IV enzyme (Bos taurus, UniProt P81425) (assay: In Vitro DPP-IV Inhibitory Effect Measurement Test (1), bovine plasma). Settings: substrate Glycyl-L-Proline 4-Methyl-Coumaryl-7-Amide, Table 1.
T1 construct: Bovine plasma containing DPP-IV enzyme was diluted with assay buffer; from tissue; host or cells: bovine plasma
Type: biochemical
Description: In Vitro DPP-IV Inhibitory Effect Measurement Test (1)
Bovine plasma containing DPP-IV enzyme was diluted with assay buffer (25 mM Tris-HCl, 140 mM NaCl, 10 mM KCl, pH=7.9) and 50 μL of the dilution was added to a micro assay plate. After 1 μL of a solution of each compound was added, mixing was conducted, followed by incubation at room temperature. A substrate (Glycyl-L-Proline 4-Methyl-Coumaryl-7-Amide, Peptide Laboratories Co., Ltd.) was diluted to 0.2 mM with the assay buffer, and 50 μL of this solution was added and then stirred, followed by incubation at room temperature. Thereafter, the reaction was terminated by the addition of 100 μL of a 25% aqueous acetic acid solution. The intensity of fluorescence at an excitation wavelength of 360 nm and a measuring wavelength of 460 nm was measured by the use of a fluorescent plate reader. The difference in intensity of fluorescence between a background well in which the reaction had been terminated by previously adding a 25% aqueous acetic acid solution before the addition of the substrate solution and a control well to which no compound had been added was taken as 100%. The intensity of fluorescence of a well containing the compound was interpolated and the residual enzyme activity in the case of the addition of the compound was calculated as a relative value.
(§1) Compounds of Examples were used in this test.

T1 sequence (P81425 38-765 limits assumed): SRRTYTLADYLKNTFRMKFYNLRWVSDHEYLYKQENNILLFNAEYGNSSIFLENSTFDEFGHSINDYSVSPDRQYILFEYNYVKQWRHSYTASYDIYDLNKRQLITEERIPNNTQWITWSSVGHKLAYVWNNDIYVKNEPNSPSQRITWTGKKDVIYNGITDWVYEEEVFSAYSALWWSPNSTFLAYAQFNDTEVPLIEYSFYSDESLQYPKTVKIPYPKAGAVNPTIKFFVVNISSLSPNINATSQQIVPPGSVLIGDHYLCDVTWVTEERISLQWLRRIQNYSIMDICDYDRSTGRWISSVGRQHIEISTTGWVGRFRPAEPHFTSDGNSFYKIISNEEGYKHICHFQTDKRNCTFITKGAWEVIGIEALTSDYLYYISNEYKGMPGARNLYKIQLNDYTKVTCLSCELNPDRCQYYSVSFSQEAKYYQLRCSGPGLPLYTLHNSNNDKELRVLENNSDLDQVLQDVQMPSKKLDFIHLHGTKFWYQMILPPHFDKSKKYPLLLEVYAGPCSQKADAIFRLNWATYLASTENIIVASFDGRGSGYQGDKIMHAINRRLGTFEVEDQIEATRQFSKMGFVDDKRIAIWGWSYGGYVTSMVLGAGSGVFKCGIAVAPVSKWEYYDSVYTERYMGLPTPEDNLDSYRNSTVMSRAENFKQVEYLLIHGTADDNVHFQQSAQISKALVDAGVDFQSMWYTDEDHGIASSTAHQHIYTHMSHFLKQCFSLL

Row | IC50 [µM] | Structure (SMILES)
1 | 0.011 | Cn1c(C#N)cc2nc(N3CCC[C@@H](N)C3)n(Cc3ccccc3Cl)c2c1=O [Example 2, 2-[(3R)-3-Aminopiperidin-1-yl]-3-(2-chlorobenzyl)-5-methyl-4-oxo-4,5-dihydro-3H-imidazo[4,5-c]pyridine-6-carbonitrile hydrochloride]
2 | 0.068 | Cn1ccc2nc(N3CCC[C@@H](N)C3)n(Cc3ccccc3Cl)c2c1=O [Example 4, 2-[(3R)-3-Aminopiperidin-1-yl]-3-(2-chlorobenzyl)-5-methyl-3,5-dihydro-4H-imidazo[4,5-c]pyridin-4-one]
3 | 0.0014 | N[C@@H]1CCCN(c2nc3ccn(CC(=O)c4ccccc4)c(=O)c3n2Cc2ccccc2Cl)C1 [Example 7]
4 | 0.044 | Cn1ccc2nc(N3CCC[C@@H](N)C3)n(Cc3cc(F)ccc3Cl)c2c1=O [Example 11]
5 | 0.005 | N[C@@H]1CCCN(c2nc3cc(C(=O)O)[nH]c(=O)c3n2Cc2ccccc2Cl)C1 [Example 13]
6 | 0.203 | N[C@@H]1CCCN(c2nc3ccn(-c4cccc(F)c4)c(=O)c3n2Cc2ccccc2Cl)C1 [Example 30]
7 | 0.112 | COc1cccc(CC(=O)c2cc3nc(N4CCC[C@@H](N)C4)n(Cc4ccccc4Cl)c3c(=O)n2C)c1 [Example 38]

These compounds were tested against T2, DPP-IV enzyme (Homo sapiens, UniProt P27487) (assay: In Vitro DPP-IV Inhibitory Effect Measurement Test (2), human serum). Settings: DPP-IV in human serum (diluted 10-fold); substrate Glycyl-L-Proline 4-Methyl-Coumaryl-7-Amide 100 μM; Table 2.
T2 construct: Human serum containing DPP-IV enzyme was used in an experiment after being diluted with assay buffer; from tissue; host or cells: human serum
Type: biochemical
Description: In Vitro DPP-IV Inhibitory Effect Measurement Test (2)
Human serum containing DPP-IV enzyme was used in an experiment after being diluted with assay buffer (25 mM Tris-HCl, 140 mM NaCl, 10 mM KCl, pH 7.9) (finally, diluted 10-fold). Each of solutions of each test compound having various concentrations was added to the diluted serum and the resulting mixture was incubated at room temperature. Then, a substrate (Glycyl-L-Proline 4-Methyl-Coumaryl-7-Amide, Peptide Laboratories Co., Ltd.) was added thereto to a final concentration of 100 μM and the reaction was carried out at room temperature.
as §1

T2 sequence (P27487 39-766 limits assumed): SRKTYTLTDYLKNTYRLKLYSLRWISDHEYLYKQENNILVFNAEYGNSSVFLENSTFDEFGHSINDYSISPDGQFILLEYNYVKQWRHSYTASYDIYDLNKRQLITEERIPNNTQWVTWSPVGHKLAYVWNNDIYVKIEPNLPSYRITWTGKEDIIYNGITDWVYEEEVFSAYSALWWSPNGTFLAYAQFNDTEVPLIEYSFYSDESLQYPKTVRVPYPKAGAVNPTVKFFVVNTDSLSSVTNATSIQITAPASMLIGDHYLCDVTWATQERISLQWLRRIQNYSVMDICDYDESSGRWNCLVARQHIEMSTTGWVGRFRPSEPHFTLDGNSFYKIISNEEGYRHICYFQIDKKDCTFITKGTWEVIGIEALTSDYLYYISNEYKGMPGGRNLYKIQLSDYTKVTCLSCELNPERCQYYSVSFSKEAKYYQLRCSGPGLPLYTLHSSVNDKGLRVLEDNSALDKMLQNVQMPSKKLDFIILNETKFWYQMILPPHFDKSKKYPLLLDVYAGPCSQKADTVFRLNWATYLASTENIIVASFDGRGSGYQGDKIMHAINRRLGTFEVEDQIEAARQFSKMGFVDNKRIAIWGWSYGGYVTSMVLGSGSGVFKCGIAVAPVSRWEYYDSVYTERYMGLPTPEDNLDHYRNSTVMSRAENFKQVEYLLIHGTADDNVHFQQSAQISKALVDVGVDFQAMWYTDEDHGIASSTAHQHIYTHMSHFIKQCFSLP

Row | IC50 [µM] | Structure (SMILES)
8 | 0.045 | N[C@@H]1CCCN(c2nc3c4cc(C(=O)O)ccc4[nH]c(=O)c3n2Cc2ccccc2Cl)C1 [Example 48, 2-{(3R)-3-Aminopiperidin-1-yl}-3-(2-chlorobenzyl)-4-oxo-4,5-dihydro-3H-imidazo[4,5-c]quinoline-8-carboxylic acid hydrochloride]
9 | 0.011 | Cn1c(=O)c2c(nc(N3CCC[C@@H](N)C3)n2Cc2ccccc2Cl)c2cc3c(cc21)C(=O)OC3 [Example 90, 2-[(3R)-3-Aminopiperidin-1-yl]-3-(2-chlorobenzyl)-5-methyl-5,9-dihydro-3H-furo[3,4-g]imidazo[4,5-c]quinoline-4,7-dione hydrochloride]
10 | 0.042 | COC(=O)c1c2c(nn1Cc1ccc(OC)cc1)c1nc(N3CCC[C@@H](N)C3)n(Cc3ccccc3Cl)c1c(=O)n2C [Example 94, Methyl 7-[(3R)-3-aminopiperidin-1-yl]-6-(2-chlorobenzyl)-2-(4-methoxybenzyl)-4-methyl-5-oxo-2,4,5,6-tetrahydroimidazo[4,5-d]pyrazolo[4,3-b]pyridine-3-carboxylate hydrochloride]
11 | 0.014 | Cn1c(=O)c2c(nc(N3CCC[C@@H](N)C3)n2Cc2ccccc2Cl)c2c(C(=O)O)c(F)ccc21 [Example 97, 2-[(3R)-3-aminopiperidin-1-yl]-3-(2-chlorobenzyl)-8-fluoro-5-methyl-4-oxo-4,5-dihydro-3H-imidazo[4,5-c]quinoline-9-carboxylic acid hydrochloride]
12 | 0.012 | Cn1c(=O)c2c(nc(N3CCC[C@@H](N)C3)n2Cc2ccccc2Cl)c2csc(C(=O)O)c21 [Example 102, 2-[(3R)-3-Aminopiperidin-1-yl]-3-(2-chlorobenzyl)-5-methyl-4-oxo-4,5-dihydro-3H-imidazo[4,5-d]thieno[3,4-b]pyridine-6-carboxylic acid hydrochloride]

Reference: US20070105890A1, “Novel condensed imidazole derivative” (DAINIPPON SUMITOMO PHARMA CO., LTD, priority 2003, published 2007)
